Reference: patent US10398144B2, “N-,C-disubstituted azoles and compositions and methods for controlling nematode pests” (Monsanto Technology LLC, priority 2013, dated 2019)
Marks after values point to notes of the source that are not given here.

How the values were obtained:
[1] = tested on: Meloidogyne incognita nematodes; assay: Miniaturized greenhouse nematicidal efficacy assay (cucumber root gall rating); conditions: average of triplicate gall ratings
Protocol: A miniaturized greenhouse assay was conducted to study the effects of several N-,C-disubstituted azole analogs on Meloidogyne incognita nematodes.
Cucumber seeds were sprouted for 3 days in moist paper towels. Acceptable sprouts were 3 to 4 cm long, with several lateral roots just emerging.
Each test solution was evaluated in triplicate. Dry sand (10 mL) was added to each vial. Seedlings were planted by tilting the vial and laying the seedling in the correct orientation so that the cotyledons were just above the sand, and then tilting back to cover the radicles with sand.
A sample of the test solution (3.3 mL) was then added to each vial, and the vials were placed in racks under fluorescent light banks. The vials were inoculated two days after planting by adding 500 vermiform M. incognita eggs to each vial in deionized or spring water (50 μL). The vials were then kept under the fluorescent lamps at ambient room temperature and watered as needed with deionized water (1 mL), usually twice during duration of test.
Harvest of the cucumber plants was performed 10 to 12 days after inoculation by washing sand off the roots. A root gall rating was assigned using the following Gall rating scale (Gall: % root mass galled): 0=0-5%; 1=6-20%; 2=21-50%; and 3=51-100%.

[2] = 1 ppm, cucumber seedlings in sand, 500 M. incognita eggs, harvest 10 to 12 days after inoculation, scale 0=0-5%, 1=6-20%, 2=21-50%, 3=51-100% root mass galled
[3] = 8 ppm, cucumber seedlings in sand, 500 M. incognita eggs, harvest 10 to 12 days after inoculation, scale 0=0-5%, 1=6-20%, 2=21-50%, 3=51-100% root mass galled
[4] = 40 ppm, cucumber seedlings in sand, 500 M. incognita eggs, harvest 10 to 12 days after inoculation, scale 0=0-5%, 1=6-20%, 2=21-50%, 3=51-100% root mass galled

melting point [°C] | Compound | 40/8/1 ppm gall ratings [1, 2] | 40/8/1 ppm gall ratings [1, 3] | 40/8/1 ppm gall ratings [1, 4] | 40/8/1 ppm gall ratings ([1]; comparative compositions at 1 ppm, letters a-d mark separate tests, scale 0-3)
78 | c1ccc(-n2ncc(-c3cccs3)n2)cc1 [Formula Id-i, 2-phenyl-4-(thiophen-2-yl)-2H-1,2,3-triazole] | – | – | – | –
– | Clc1ccc(-n2cnc(-c3ccco3)c2)cc1 [Ic-i, 1-(4-chlorophenyl)-4-(furan-2-yl)-1H-imidazole] | 3.00 | 2.00 | 0.33 | –
– | Fc1ccc(-n2cc(-c3ccco3)nn2)cc1 [Ia-iv, 1-(4-fluorophenyl)-4-(furan-2-yl)-1H-1,2,3-triazole] | 2.33 | 1.67 | 0.33 | –
– | Fc1ccc(-n2cc(-c3cccs3)nn2)c(F)c1 [Ia-ii, 1-(2,4-difluorophenyl)-4-(thiophen-2-yl)-1H-1,2,3-triazole] | 3.00 | 2.33 | 0.00 | –
– | c1ccc(-c2cn(-c3cccs3)cn2)cc1 [IIc-iii, 4-phenyl-1-(thiophen-2-yl)-1H-imidazole] | 2.33 | 1.33 | 0.00 | –
118 to 120 | c1ccc(-n2cc(-c3ccco3)nn2)cc1 [Formula Ia-i, 4-(furan-2-yl)-1-phenyl-1H-1,2,3-triazole] | – | – | – | –
– | c1ccc(-c2cn(-c3ccco3)nn2)cc1 [IIa-iii, 1-(furan-2-yl)-4-phenyl-1H-1,2,3-triazole] | 2.00 | 1.33 | 0.00 | –
– | c1ccc(-n2cc(-c3cccs3)cn2)cc1 [Ib-i, 1-phenyl-4-(thiophen-2-yl)-1H-pyrazole] | 3.00 | 0.33 | 0.00 | –
– | Fc1ccc(-n2cc(-c3ccco3)nn2)c(F)c1 [Ia-v, 1-(2,4-difluorophenyl)-4-(furan-2-yl)-1H-1,2,3-triazole] | 2.33 | 0.67 | 0.00 | –
– | Clc1ccc(-c2cn(-c3ccco3)cn2)cc1 [IIc-iv, 4-(4-chlorophenyl)-1-(furan-2-yl)-1H-imidazole] | 2.33 | 2.00 | 0.33 | –
– | c1ccc(-n2cc(-c3ccco3)cn2)cc1 [Ib-iii, 4-(furan-2-yl)-1-phenyl-1H-pyrazole] | 2.67 | 1.67 | 0.00 | –
– | c1ccc(-n2ncc(-c3cccs3)n2)cc1 [Id-i, 2-phenyl-4-(thiophen-2-yl)-2H-1,2,3-triazole] | 1.67 | 0.33 | 0.00 | –
– | Clc1ccc(-n2cc(-c3cccs3)cn2)cc1 [Ib-ii, 1-(4-chlorophenyl)-4-(thiophen-2-yl)-1H-pyrazole] | 2.33 | 0.67 | 0.00 | –
– | Clc1ccc(-c2cn(-c3ccco3)nn2)cc1 [IIa-v, 4-(4-chlorophenyl)-1-(furan-2-yl)-1H-1,2,3-triazole] | 2.33 | 0.67 | 0.00 | –
– | c1ccc(-n2cc(-c3ccco3)nn2)cc1 [Ia-i, 4-(furan-2-yl)-1-phenyl-1H-1,2,3-triazole] | 2.67 | 1.33 | 0.00 | –
– | c1ccc(-n2ncc(-c3ccco3)n2)cc1 [Id-ii, 4-(furan-2-yl)-2-phenyl-2H-1,2,3-triazole] | 2.33 | 1.00 | 0.00 | –
– | Clc1ccc(-c2cn(-c3cccs3)cn2)cc1 [IIc-i, 4-(4-chlorophenyl)-1-(thiophen-2-yl)-1H-imidazole] | 1.67 | 1.33 | 0.00 | –
– | Clc1ccc(-n2cc(-c3ccco3)nn2)cc1 [Ia-iiii, 1-(4-chlorophenyl)-4-(furan-2-yl)-1H-1,2,3-triazole] | 2.67 | 1.00 | 0.00 | –
– | Abamectin [reference compound] | – | – | – | 1.67^d
– | Fc1ccc(-c2cn(-c3cccs3)nn2)c(F)c1 [IIa-i, 4-(2,4-difluorophenyl)-1-(thiophen-2-yl)-1H-1,2,3-triazole] | 1.67 | 0.00 | 0.00 | –
– | Fc1ccc(-c2cn(-c3cccs3)nn2)cc1 [IIa-iv, 4-(4-fluorophenyl)-1-(thiophen-2-yl)-1H-1,2,3-triazole] | 2.67 | 1.33 | 0.33 | –
– | c1ccc(-c2cn(-c3cccs3)nn2)cc1 [IIa-ii, 4-phenyl-1-(thiophen-2-yl)-1H-1,2,3-triazole] | 1.67 | 0.00 | 0.00 | –
